# Legend:
# [1] = Inhibition of IL-23 induced STAT phosphorylation in HEK293 cells by Western blotting analysis; type: cell-based; conditions: Homo sapiens
# [2] = Inhibition of IFNalpha induced STAT phosphorylation in HEK293 cells by Western blotting analysis; type: cell-based; conditions: Homo sapiens
# [3] = biological target: T1, Non-receptor tyrosine-protein kinase TYK2 (Homo sapiens, UniProt P29597); test: Inhibition of TYK2 JH2 in human TF-1 cells assessed as reduction of IFNalpha induced STAT1 phosphorylation; type: cell-based
# T1 sequence (P29597 whole entry): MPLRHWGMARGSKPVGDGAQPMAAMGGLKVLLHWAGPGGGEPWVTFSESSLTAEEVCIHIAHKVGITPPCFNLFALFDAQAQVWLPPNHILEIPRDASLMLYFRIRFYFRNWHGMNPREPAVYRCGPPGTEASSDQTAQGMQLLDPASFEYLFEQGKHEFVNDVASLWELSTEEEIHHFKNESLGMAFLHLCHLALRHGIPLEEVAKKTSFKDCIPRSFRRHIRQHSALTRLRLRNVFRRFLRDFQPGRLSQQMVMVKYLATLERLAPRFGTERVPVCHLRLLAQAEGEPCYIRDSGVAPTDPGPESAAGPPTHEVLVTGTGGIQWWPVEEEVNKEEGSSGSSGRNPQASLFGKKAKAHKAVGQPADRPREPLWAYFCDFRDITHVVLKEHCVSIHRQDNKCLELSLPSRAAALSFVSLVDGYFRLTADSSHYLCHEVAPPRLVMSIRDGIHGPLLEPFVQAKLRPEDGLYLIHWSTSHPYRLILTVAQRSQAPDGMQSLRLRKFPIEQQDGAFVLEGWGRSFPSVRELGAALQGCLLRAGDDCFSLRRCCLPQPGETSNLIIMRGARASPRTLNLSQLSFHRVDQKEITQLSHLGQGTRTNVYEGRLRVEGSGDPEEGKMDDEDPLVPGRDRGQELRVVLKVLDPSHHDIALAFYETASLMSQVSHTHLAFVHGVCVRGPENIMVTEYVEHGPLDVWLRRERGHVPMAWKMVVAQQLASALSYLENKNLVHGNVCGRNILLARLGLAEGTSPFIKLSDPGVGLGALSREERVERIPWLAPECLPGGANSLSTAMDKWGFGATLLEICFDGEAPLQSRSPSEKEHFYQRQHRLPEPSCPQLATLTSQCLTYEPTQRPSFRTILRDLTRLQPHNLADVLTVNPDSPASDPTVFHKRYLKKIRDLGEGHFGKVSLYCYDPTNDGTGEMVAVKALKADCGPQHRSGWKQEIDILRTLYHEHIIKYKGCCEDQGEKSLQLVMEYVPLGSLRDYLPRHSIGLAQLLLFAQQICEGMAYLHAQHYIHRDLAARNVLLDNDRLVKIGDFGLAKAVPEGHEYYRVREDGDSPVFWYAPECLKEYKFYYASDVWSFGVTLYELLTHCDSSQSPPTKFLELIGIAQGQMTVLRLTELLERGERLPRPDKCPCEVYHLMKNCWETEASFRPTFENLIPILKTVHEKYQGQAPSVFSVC
# [4] = biological target: T2, Tyrosine-protein kinase JAK1 (Homo sapiens, UniProt P23458); test: Binding affinity to JAK1 JH2 (unknown origin)
# T2 sequence (P23458 whole entry): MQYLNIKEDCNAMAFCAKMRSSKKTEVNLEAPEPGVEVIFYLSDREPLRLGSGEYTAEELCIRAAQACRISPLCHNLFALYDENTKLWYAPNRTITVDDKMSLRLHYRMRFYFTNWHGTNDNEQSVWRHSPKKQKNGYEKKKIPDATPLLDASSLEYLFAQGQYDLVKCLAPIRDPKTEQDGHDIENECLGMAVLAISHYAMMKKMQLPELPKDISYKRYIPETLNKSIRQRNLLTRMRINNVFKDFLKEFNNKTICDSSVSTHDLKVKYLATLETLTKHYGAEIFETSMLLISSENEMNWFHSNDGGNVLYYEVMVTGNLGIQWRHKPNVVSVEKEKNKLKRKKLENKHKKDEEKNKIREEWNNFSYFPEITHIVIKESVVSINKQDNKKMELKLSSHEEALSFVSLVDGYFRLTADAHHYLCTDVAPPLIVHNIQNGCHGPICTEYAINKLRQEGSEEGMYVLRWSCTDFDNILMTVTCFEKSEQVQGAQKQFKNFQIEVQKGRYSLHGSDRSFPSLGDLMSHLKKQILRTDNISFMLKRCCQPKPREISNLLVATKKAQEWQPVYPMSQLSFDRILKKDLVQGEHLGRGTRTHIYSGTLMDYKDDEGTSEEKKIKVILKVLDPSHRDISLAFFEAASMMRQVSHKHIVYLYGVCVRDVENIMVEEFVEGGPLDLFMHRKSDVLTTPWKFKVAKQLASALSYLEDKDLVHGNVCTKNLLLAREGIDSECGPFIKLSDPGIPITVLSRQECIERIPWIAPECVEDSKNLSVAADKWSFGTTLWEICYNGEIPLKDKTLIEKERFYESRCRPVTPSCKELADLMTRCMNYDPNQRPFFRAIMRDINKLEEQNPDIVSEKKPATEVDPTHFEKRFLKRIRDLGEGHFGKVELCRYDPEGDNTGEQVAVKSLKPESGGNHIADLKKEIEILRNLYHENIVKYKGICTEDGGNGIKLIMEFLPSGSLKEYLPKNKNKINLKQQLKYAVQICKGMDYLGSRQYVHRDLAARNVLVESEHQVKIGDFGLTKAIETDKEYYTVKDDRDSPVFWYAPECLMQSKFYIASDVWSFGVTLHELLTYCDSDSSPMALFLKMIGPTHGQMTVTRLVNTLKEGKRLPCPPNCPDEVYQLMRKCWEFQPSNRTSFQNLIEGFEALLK
# [5] = biological target: T1, Non-receptor tyrosine-protein kinase TYK2; test: Binding affinity to TYK2 JH2 (unknown origin)
# [6] = biological target: T3, Tyrosine-protein kinase JAK2 (Homo sapiens, UniProt O60674); test: Binding affinity to JAK2 JH1 (unknown origin)
# T3 sequence (O60674 whole entry): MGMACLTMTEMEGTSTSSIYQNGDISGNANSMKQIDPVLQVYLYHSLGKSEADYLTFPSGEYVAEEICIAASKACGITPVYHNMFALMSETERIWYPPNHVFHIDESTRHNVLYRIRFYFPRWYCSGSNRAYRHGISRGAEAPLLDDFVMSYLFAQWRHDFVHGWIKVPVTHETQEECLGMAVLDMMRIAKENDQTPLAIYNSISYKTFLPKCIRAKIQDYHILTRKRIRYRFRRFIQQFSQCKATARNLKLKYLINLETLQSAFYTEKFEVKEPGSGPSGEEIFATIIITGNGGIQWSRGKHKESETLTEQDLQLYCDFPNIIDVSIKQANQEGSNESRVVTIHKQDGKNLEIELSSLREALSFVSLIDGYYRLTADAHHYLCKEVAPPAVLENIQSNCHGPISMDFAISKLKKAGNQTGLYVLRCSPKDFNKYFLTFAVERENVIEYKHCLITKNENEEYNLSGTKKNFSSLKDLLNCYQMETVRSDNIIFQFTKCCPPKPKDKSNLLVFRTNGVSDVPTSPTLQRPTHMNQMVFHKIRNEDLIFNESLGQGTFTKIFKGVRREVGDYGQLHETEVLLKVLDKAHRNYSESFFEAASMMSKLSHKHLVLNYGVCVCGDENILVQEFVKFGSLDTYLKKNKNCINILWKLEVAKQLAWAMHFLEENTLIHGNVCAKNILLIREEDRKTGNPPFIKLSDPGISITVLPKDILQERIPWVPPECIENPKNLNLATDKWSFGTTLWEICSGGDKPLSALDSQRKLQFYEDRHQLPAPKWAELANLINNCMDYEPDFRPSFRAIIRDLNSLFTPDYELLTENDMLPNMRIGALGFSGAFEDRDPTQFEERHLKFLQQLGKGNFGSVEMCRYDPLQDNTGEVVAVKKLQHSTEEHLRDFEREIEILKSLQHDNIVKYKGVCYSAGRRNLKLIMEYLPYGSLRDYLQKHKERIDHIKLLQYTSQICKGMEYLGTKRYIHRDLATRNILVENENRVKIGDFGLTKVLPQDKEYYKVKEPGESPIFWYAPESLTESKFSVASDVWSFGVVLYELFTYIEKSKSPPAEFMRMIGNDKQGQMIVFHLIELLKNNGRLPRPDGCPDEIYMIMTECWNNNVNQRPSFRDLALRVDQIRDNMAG
# [7] = biological target: T1, Non-receptor tyrosine-protein kinase TYK2; test: Inhibition of TYK2 signal transduction pathway in human PBMC cells assessed as IFNalpha induced p-STAT5 level; type: cell-based
# [8] = biological target: T1, Non-receptor tyrosine-protein kinase TYK2; test: Inhibition of TYK2 signal transduction pathway in human PBMC cells assessed as reduction in GM-CSF induced p-STAT5 level; type: cell-based
# [9] = biological target: T1, Non-receptor tyrosine-protein kinase TYK2; test: Inhibition of TYK2 signal transduction pathway in human PBMC cells assessed as IL-2 induced p-STAT5 level; type: cell-based
# [10] = biological target: T1, Non-receptor tyrosine-protein kinase TYK2; test: Inhibition of TYK2 JH2 (unknown origin) by scintillation proximity assay
# [11] = biological target: T1, Non-receptor tyrosine-protein kinase TYK2; test: Binding affinity to human wild-type partial length TYK2 JH2 (G556 to D888 residues) expressed in mammalian expression system by KINOMEscan assay
# [12] = Inhibition of IFNalpha induced STAT phosphorylation in human whole blood by fluorescence based analysis; type: tissue-based
# JAK2/TYK2 [13] = biological target: T4, JAK2/TYK2 (Homo sapiens, UniProt O60674+P29597); test: Inhibition of JAK2/TYK2 signal transduction pathway in human NK92 cells assessed as IL-12 induced STAT4 phosphorylation; type: cell-based
# T4 sequence (O60674 whole entry): as above
# T4 sequence (P29597 whole entry): as the sequence (P29597 whole entry) above
# [14] = biological target: T1, Non-receptor tyrosine-protein kinase TYK2; test: Inhibition of TYK2 signal transduction pathway in human TF-1 cells assessed as reduction in GM-CSF induced p-STAT5 level; type: cell-based
# [15] = Half life in mouse at 10 mg/kg, po measured upto 24 hrs by LC-MS/MS analysis; type: ADME, organism-based; conditions: in vivo
# [16] = Cmax in mouse at 10 mg/kg, po measured upto 24 hrs by LC-MS/MS analysis; type: ADME, organism-based; set-up: time < 24 hrs, dose 10 mg/kg, route po; conditions: in vivo
# [17] = AUClast in mouse at 10 mg/kg, po measured upto 24 hrs by LC-MS/MS analysis; type: ADME, organism-based; set-up: dose 10 mg/kg, time < 24 hrs, route po; conditions: in vivo
# [18] = biological target: T2, Tyrosine-protein kinase JAK1; test: Inhibition of human recombinant JAK1 preincubated for 15 mins followed by substrate addition measured after 60 mins by HTRF assay
# [19] = biological target: T3, Tyrosine-protein kinase JAK2; test: Inhibition of human recombinant JAK2 preincubated for 15 mins followed by substrate addition measured after 60 mins by HTRF assay
# [20] = biological target: T5, Tyrosine-protein kinase JAK3 (Homo sapiens, UniProt P52333); test: Inhibition of human recombinant JAK3 preincubated for 15 mins followed by substrate addition measured after 60 mins by HTRF assay
# T5 sequence (P52333 whole entry): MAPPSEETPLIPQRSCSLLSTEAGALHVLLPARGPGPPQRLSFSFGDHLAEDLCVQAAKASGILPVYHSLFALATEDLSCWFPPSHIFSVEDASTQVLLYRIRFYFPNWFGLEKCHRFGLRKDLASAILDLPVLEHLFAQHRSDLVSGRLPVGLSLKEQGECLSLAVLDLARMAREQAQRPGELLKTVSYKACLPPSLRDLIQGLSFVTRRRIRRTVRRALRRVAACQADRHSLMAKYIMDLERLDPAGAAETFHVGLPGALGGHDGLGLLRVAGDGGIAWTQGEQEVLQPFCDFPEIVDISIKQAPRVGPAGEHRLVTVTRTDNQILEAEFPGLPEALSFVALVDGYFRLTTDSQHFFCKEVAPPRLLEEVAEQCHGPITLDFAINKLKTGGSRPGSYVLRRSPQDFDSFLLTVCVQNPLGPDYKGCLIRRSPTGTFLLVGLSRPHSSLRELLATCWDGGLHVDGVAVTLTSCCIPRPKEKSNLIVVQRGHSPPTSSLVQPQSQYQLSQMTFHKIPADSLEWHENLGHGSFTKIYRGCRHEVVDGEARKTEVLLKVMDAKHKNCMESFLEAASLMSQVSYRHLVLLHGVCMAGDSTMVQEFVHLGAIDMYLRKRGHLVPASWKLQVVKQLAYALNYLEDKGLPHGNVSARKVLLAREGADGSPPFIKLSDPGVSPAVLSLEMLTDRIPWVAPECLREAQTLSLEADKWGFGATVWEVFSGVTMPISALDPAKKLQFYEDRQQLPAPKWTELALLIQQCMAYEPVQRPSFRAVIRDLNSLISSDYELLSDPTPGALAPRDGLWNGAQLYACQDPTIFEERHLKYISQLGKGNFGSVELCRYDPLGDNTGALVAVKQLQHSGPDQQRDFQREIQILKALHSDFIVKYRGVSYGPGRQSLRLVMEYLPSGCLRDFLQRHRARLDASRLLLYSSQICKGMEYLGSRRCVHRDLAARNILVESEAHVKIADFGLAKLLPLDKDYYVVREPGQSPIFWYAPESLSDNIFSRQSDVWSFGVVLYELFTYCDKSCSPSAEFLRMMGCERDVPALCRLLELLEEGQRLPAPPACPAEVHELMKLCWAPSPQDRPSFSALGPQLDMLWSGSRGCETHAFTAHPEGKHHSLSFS
# [21] = biological target: T1, Non-receptor tyrosine-protein kinase TYK2; test: Inhibition of human recombinant TYK2 preincubated for 15 mins followed by substrate addition measured after 60 mins by HTRF assay
# JAK2/TYK2 [22] = biological target: T4, JAK2/TYK2; test: Inhibition of JAK2/TYK2 signal transduction pathway in human NK92 cells assessed as […] induced IFNgamma expression incubated for 24 hrs by ELISA assay; type: cell-based
# [23] = biological target: T5, Tyrosine-protein kinase JAK3; test: Inhibition of JAK3 (unknown origin) using ULight - JAK (Tyr1023) substrate incubated for 60 mins in presence of ATP by envision plate reader based analysis
structure (smiles),measurement,setting,value
[2H]C([2H])([2H])NC(=O)c1nnc(NC(=O)C2CC2)cc1Nc1cccc2c1N(C)Cc1cn(C)nc1-2,IC50,[1],< 30 nM
same,IC50,[2],< 30 nM
CNc1cc(Nc2ccccc2OC)nc2c(C(=O)N[C@@H]3CCN(C)C3=O)cnn12,IC50,[3],8 nM
[2H]C([2H])([2H])CC(=O)c1cnc(Nc2cccc(C#N)n2)cc1Nc1cccc(-c2ncn(C([2H])([2H])[2H])n2)c1OC,Kd,[4],≤ 100 nM
same,Kd,[5],≤ 10 nM
same,Kd,[6],> 10000 nM
same,IC50,[7],< 100 nM
same,IC50,[8],≤ 1000 nM
same,IC50,[9],≤ 100 nM
[2H]C([2H])([2H])CC(=O)c1cnc(Nc2cccc(C#N)n2)cc1Nc1nccc(-c2ncn(C([2H])([2H])[2H])n2)c1OC,Kd,[4],≤ 100 nM
same,Kd,[5],≤ 10 nM
same,Kd,[6],> 10000 nM
same,IC50,[7],< 100 nM
same,IC50,[8],≤ 1000 nM
same,IC50,[9],≤ 100 nM
CNc1cc(Nc2cccc3c2OCCC3)nc2c(C(=O)N[C@@H]3CCN(C)C3=O)cnn12,IC50,[10],< 254 nM
same,IC50,[3],7 nM
[2H]C([2H])([2H])NC(=O)c1nnc(NC(=O)C2CC2)cc1Nc1cccc(-c2noc(CN3CCN(S(C)(=N)=O)CC3)n2)c1OC (stereo not given),Kd,[11],0.008 nM
[2H]C([2H])([2H])NC(=O)c1nnc(NC(=O)[C@H]2CC23CC3)cc1Nc1ncccc1S(C)(=O)=O,IC50,[12],47 nM
[2H]C([2H])([2H])n1nnc2c3cc(cc21)CO[C@@H]1CCC[C@H]1NC(=O)c1cnc2c(NC)cc(nn12)N3,Kd,[5],0.002 nM
same,IC50,[7],1.7 nM
[2H]C([2H])([2H])NC(=O)c1nnc(NC(=O)C2CC2)cc1Nc1cccc2c1N(C)Cc1cccnc1-2,IC50,[1],< 30 nM
same,IC50,[2],< 30 nM
[2H]C([2H])([2H])NC(=O)c1nnc(Nc2ccc(C(C)(C)O)cn2)cc1Nc1nc(C)ccc1S(C)(=O)=O,IC50,[12],6 nM
[2H]C([2H])([2H])NC(=O)c1cnc(Nc2cc(C3CC3)ncn2)cc1Nc1ncccc1S(C)(=O)=O,IC50,[12],9 nM
[2H]C([2H])([2H])NC(=O)c1nnc(Nc2ccc(F)cn2)cc1Nc1cccc2c1N(C)Cc1n[nH]c(=O)n1-2,IC50,[1],< 30 nM
same,IC50,[2],< 30 nM
COc1cc(Nc2cc(NC(C)=O)ncc2-c2ccc3c(n2)OCC(C)(C)O3)nc(S(C)(=O)=O)c1,IC50,JAK2/TYK2 [13],0.053 nM
same,IC50,[14],1820 nM
same,half-life,[15],3.01 h
same,Cmax,[16],2820 ng/mL
same,AUC(0-t) at 24 h,[17],16200 ng·h/mL
[2H]C([2H])([2H])NC(=O)c1nnc(NC(=O)C2CC2)cc1Nc1cccc2c1N(C)Cc1nc(C)nn1-2,IC50,[1],< 30 nM
same,IC50,[2],< 30 nM
COc1cc(Nc2cc(NC(C)=O)ncc2-c2ccc(F)cn2)nc(S(C)(=O)=O)c1,IC50,JAK2/TYK2 [13],1.82 nM
same,IC50,[14],> 10000 nM
same,half-life,[15],1.48 h
same,Cmax,[16],911 ng/mL
same,AUC(0-t) at 24 h,[17],2100 ng·h/mL
COC(=O)c1nnc(NC(=O)C2CC2)cc1Nc1cccc2c1N(C)Cc1cn(C)nc1-2,IC50,[1],< 30 nM
same,IC50,[2],< 30 nM
COc1cc(Nc2cc(NC(C)=O)ncc2-c2ccc(C(C)(C)O)cn2)nc(S(C)(=O)=O)c1,IC50,JAK2/TYK2 [13],1 nM
same,IC50,[14],> 10000 nM
same,half-life,[15],2.07 h
same,Cmax,[16],8.73 ng/mL
same,AUC(0-t) at 24 h,[17],19.3 ng·h/mL
[2H]C([2H])([2H])NC(=O)c1nnc(NC(=O)C2CC2)cc1Nc1cccc(-c2noc(CN3CCN(S(C)(=O)=O)CC3)n2)c1OC,IC50,[12],30 nM
NC(=O)c1nnc(-c2c(F)cccc2F)cc1Nc1ccc(N2CCOCC2)cn1,IC50,[18],38 nM
same,IC50,[19],4 nM
same,IC50,[20],1 nM
same,IC50,[21],< 0.06 nM
same,IC50,JAK2/TYK2 [22],0.08 nM
NC(=O)c1nnc(-c2c(F)cccc2F)cc1Nc1ccc(N2CCOCC2=O)cn1,IC50,[18],81 nM
same,IC50,[19],5 nM
same,IC50,[20],7 nM
same,IC50,[21],0.08 nM
same,IC50,JAK2/TYK2 [22],0.3 nM
[2H]C([2H])([2H])NC(=O)c1nnc(NC(=O)C2CC2)cc1Nc1cccc(-c2ncc(C(=O)N3CCN(C4CCCC4)CC3)s2)c1OC,IC50,[12],40 nM
CCOc1cccc(Nc2cc(NC)n3ncc(C(=O)N[C@@H]4CCN(C)C4=O)c3n2)n1,IC50,[10],< 254 nM
same,IC50,[3],38 nM
CNc1cc2nn3c(cnc13)C(=O)N[C@H](C)COCc1ccc(OC)c(c1)N2,Kd,[4],430 nM
same,Kd,[5],0.002 nM
same,Kd,[6],7300 nM
same,IC50,[7],1.2 nM
same,IC50,[9],> 10000 nM
[2H]C([2H])([2H])NC(=O)c1nnc(NC(=O)C2CC2)cc1Nc1cccc(-n2cc3c(n2)CN(S(C)(=N)=O)C3)c1OC (stereo not given),Kd,[11],0.009 nM
NC(=O)c1nnc(-c2c(F)cccc2Cl)cc1Nc1ccc(N2CCOCC2)cc1,IC50,[18],37 nM
same,IC50,[19],9 nM
same,IC50,[20],11 nM
same,IC50,[21],0.2 nM
same,IC50,JAK2/TYK2 [22],0.4 nM
[2H]C([2H])([2H])NC(=O)c1nnc(NC(=O)C2CC2)cc1Nc1cccc(-c2nc(CN3CCN(S(C)(=O)=O)CC3)no2)c1OC,IC50,[12],30 nM
[2H]C([2H])([2H])CC(=O)c1cnc(NC(=O)C2CC2)cc1Nc1nccc(-c2ncn(C([2H])([2H])[2H])n2)c1OC,Kd,[4],≤ 100 nM
same,Kd,[5],≤ 10 nM
same,Kd,[6],≤ 1000 nM
same,IC50,[7],< 100 nM
same,IC50,[8],> 10000 nM
same,IC50,[9],≤ 1000 nM
O=C(Nc1cc2c(cn1)c(=O)[nH]n2-c1ccccc1)C1CC1,IC50,[1],< 10000 nM
same,IC50,[2],< 10000 nM
Cn1cc(-c2cn3ncnc3c(-c3ccn([C@]4(CC#N)C[C@H](C#N)C4)c3)n2)cn1,IC50,[23],> 5000 nM
CNc1cc(Nc2cccn(-c3ccccn3)c2=O)nc2c(C(=O)N[C@@H]3CCN(C)C3=O)cnn12,IC50,[10],< 254 nM
same,IC50,[3],112 nM
[2H]C([2H])([2H])NC(=O)c1nnc(NC(=O)C2CC2)cc1Nc1cccc2c1N(C)Cc1cn(C([2H])([2H])[2H])nc1-2,IC50,[1],< 30 nM
same,IC50,[2],< 30 nM
